Results published in patent US20260325521A1, “TREATMENT OF IDIOPATHIC PULMONARY FIBROSIS WITH ENSIFENTRINE” (Verona Pharma Limited, priority 2022, published 2026).
Entries after “also recorded” stand apart in the source; their conditions may differ.

Assays:
Format in all cases: in vivo
IL-6 = experiment: Clinical study in COPD patients: change in blood IL-6 with inhaled ensifentrine compared with placebo; settings: inhaled by nebuliser, 3 mg BID, 24 weeks, FIG. 1
Procedure: (§1) A clinical study was conducted to determine the efficacy of ensifentrine in treating COPD compared with placebo. Ensifentrine was administered by nebuliser at a dose of 3 mg twice daily (BID) for 24 weeks. The study was a multi-centre, randomized, double-blind, parallel-group, placebo-controlled trial with around 800 patients and 5:3 randomization.
(§2) The study population included patients aged 40-80 years with moderate to severe COPD (FEV1 30%-70% p.n., FEV1/forced vital capacity (FVC) ratio <0.7, with mMRC ≥2). The randomization stratified (a) the use of stable background maintenance LAMA or LABA therapy use (approx. 50%. yes or no) and (b) cigarette smoking (current or former). Inhaled corticosteroid (ICS) maintenance therapy was permitted in up to 20% of patients under certain provisions.
(§3) The effect of ensifentrine on the change in blood IL-6 and IL-8 was measured.
(§4) The investigational product and placebo were provided in 2.5 mL unit dose format in an ampule and administered via a nebuliser.

IL-8 = experiment: Clinical study in COPD patients: change in blood IL-8 with inhaled ensifentrine compared with placebo; settings: inhaled by nebuliser, 3 mg BID, 24 weeks, FIG. 1
Procedure: as §1, §2, §3, §4

[1] = test system: bleomycin-induced lung fibrosis; experiment: Rodent model of bleomycin-induced lung fibrosis (Example 2); settings: rodents, inhalation; dose and period not given; histological fibrotic area
Procedure: The anti-fibrotic activity of ensifentrine is assessed using a rodent model of bleomycin-induced lung fibrosis.
Bleomycin is administered to anaesthetised rodents to induce lung fibrosis. Ensifentrine is then administered to the test rodents by inhalation for a period, and the rodents are subsequently killed. Lung samples are obtained for histological studies to determine fibrotic area.

[2] = test system: inflammatory cell and macrophage infiltration into the rat airways; experiment: Bleomycin-induced pulmonary fibrosis in rats: BAL differential cell counts
Procedure: (§5) An in vivo study was conducted to determine the efficacy of ensifentrine in the treatment of bleomycin-induced pulmonary fibrosis in rats in comparison to a control. Rats were administered bleomycin to induce pulmonary fibrosis. After a week, they then received a daily inhaled dosage of ensifentrine or a control over a period of two weeks. At the end of the two weeks, the rats were sacrificed and their airways were analysed for Bronchoalveolar lavage (BAL) differential cell counts and TGF-β concentration.
(§6) The BAL differential cell count provided a total inflammatory cell count so that changes in inflammation following treatment could be observed. TGF-β is a key cytokine in the development of tissue fibrosis. Macrophages and other immune cells produce TGF-β, which induces the differentiation of fibroblasts to myofibroblasts and increases TGF-β expression. Overexpression of active TGF-β1 in the lungs of rodents causes severe and progressive tissue fibrosis, including fibroblastic foci and honeycomb formation.
(§7) At day 0, the rats were subjected to an intratracheal challenge of either 0.9% w/v saline or bleomycin, the latter used to induce pulmonary fibrosis.
(§8) Starting on day 7, two groups of 12 rats from the bleomycin challenge group were administered an inhaled dose of ensifentrine at either 3 mg/kg (Experiment 1) or 10 mg/kg (Experiment 2) on a daily basis for two weeks, terminating on day 21. The ensifentrine was administered as a suspension in the vehicle suspension article.
(§9) Two control experiments were also conducted. Control 1 subjected 12 rats from the saline challenge group to daily administration of the vehicle suspension article via inhalation for the full 21 days. Control 2 subjected 12 rats from the bleomycin challenge group to daily administration of the vehicle suspension article via inhalation for the full 21 days.
(§10) At the end of the 21-day period, the rats were sacrificed and the BAL differential cell counts and the TGF-β concentration data were collected.

TGF-β = experiment: Bleomycin-induced pulmonary fibrosis in rats: TGF-β concentration
Procedure: as §5, §6, §7, §8, §9, §10
An in vivo study was conducted to compare the efficacy of ensifentrine and nintedanib in the treatment of bleomycin-induced pulmonary fibrosis in rats. Following the same initial experimental procedure as in Example 3, 12 rats from the bleomycin challenge group were administered a daily dose of 100 mg/kg of nintedanib via an oral gavage for two weeks, starting from day 7 (Experiment 3). A new control experiment was also conducted (Control 3), administering the vehicle suspension article orally in an aqueous solution.
At day 21, the rats were sacrificed and their airways were analysed to calculate the TGF-β concentration. The results were compared to those of Experiments 1 and 2 (Example 3).

[3] = test system: bleomycin-induced pulmonary fibrosis; experiment: Efficacy in treatment of bleomycin-induced pulmonary fibrosis in rats (overall); settings: inhalation, 3 mg/kg and 10 mg/kg
Procedure: as §5, §7, §8
Two control experiments were also conducted. Control 1 subjected 12 rats from the saline challenge group to daily administration of the vehicle suspension article via inhalation for the full 21 days. Control 2 subjected 12 rats from the bleomycin challenge group to daily administration of the vehicle suspension article via inhalation for the full 21 days. […]

[4] = Diarrhoea as side effect of inhaled ensifentrine in patients
[5] = inhaled 3 mg/kg/day QD from day 7, day 21, vs bleomycin Control 2 (Experiment 1)
[6] = inhaled 10 mg/kg/day QD from day 7, day 21, vs bleomycin Control 2 (Experiment 2)

SMILES: COc1cc2c(cc1OC)-c1c/c(=N\c3c(C)cc(C)cc3C)n(CCNC(N)=O)c(=O)n1CC2 [ensifentrine, N-(2-{(2E)-9,10-dimethoxy-4-oxo-2-[(2,4,6-trimethylphenyl)imino]-6,7-dihydro-2H-pyrimido[6,1-a]isoquinolin-3(4H)-yl}ethyl)urea]
- blood IL-6 (IL-6): reduce blood IL-6; also recorded: reduction in blood IL-6
- blood IL-8 (IL-8): reduce blood IL-6 and IL-8; also recorded: reduction in blood IL-6 and IL-8
- anti-fibrotic effect in bleomycin-induced lung fibrosis [1]: anti-fibrotic effect
- BAL differential cell count ([2]; inhaled 3 mg/kg QD from day 7, day 21 (Experiment 1)): reduction in BAL differential cell count
- macrophage infiltration into the airways (BAL differential cell counts) [2, 5]: reduction in total inflammatory cell and macrophage infiltration
- total inflammatory cell infiltration into the airways (BAL differential cell counts) [2, 5]: reduction in total inflammatory cell
- BAL differential cell count ([2]; inhaled 10 mg/kg QD from day 7, day 21 (Experiment 2)): reduction in BAL differential cell count
- macrophage infiltration into the airways (BAL differential cell counts) [2, 6]: reduction in total inflammatory cell and macrophage infiltration
- total inflammatory cell infiltration into the airways (BAL differential cell counts) [2, 6]: reduction in total inflammatory cell
- TGF-β concentration in the rat lungs compared with nintedanib (TGF-β; day 21, inhaled ensifentrine 3 mg/kg/day (Experiment 1) vs oral nintedanib 100 mg/kg/day (Experiment 3)): lower than the TGF-β concentration following treatment with nintedanib; also recorded: greater reduction in TGF-β concentration than orally administered nintedanib
- TGF-β concentration in the rat lungs compared with nintedanib (TGF-β; day 21, inhaled ensifentrine 10 mg/kg/day (Experiment 2) vs oral nintedanib 100 mg/kg/day (Experiment 3)): lower than the TGF-β concentration following treatment with nintedanib; also recorded: greater reduction in TGF-β concentration than orally administered nintedanib
- TGF-β concentration (TGF-β; [5]): lower; also recorded: reduction in BAL differential cell count and TGF-β concentration
- TGF-β concentration (TGF-β; [6]): lower; also recorded: reduction in BAL differential cell count and TGF-β concentration
- efficacy in the treatment of bleomycin-induced pulmonary fibrosis [3]: effective
- diarrhoea (side effect) [4]: avoid side effects such as diarrhoea; also recorded: not to be associated with diarrhoea
